Series [1] is described as follows: PK study of dose proportionality in rat after oral crystalline Form A. It is filed as in vivo, female Sprague Dawley rats. As to conditions: oral 10, 30, 100 or 300 mg/kg, suspension in 1% Tween, 40% PEG400, 59% of 0.5% HPMC. The text has this: A summary of this study is illustrated in FIG. 5.
Series [2] can be described thus: Aqueous solubility, kinetic shake flask method. As to conditions: aqueous buffer, kinetic from dmso stock, pH=7.4 in 50 mM phosphate buffer. It is filed as physicochemical.
Series [3] relates to Raji, human Burkitts lymphoma cells. Kind of series: Cell-MTS cellular proliferation assay, Raji. It is filed as cell-based. The settings on record: 168 hr incubation. As for the experimental part: (§1) A colorimetric cellular proliferation assay (Cell-MTS assay) was performed to assess the ability of the heterocyclic derivative BRD4 inhibitors disclosed herein to effect the proliferation of established cancer cell lines.
(§2) Assay Principle: The Cell-MTS assay is a 7-day plate-based colorimetric assay that quantifies the amount of newly generated NADH in the presence or absence of test compound. The NADH level is used for the quantification of cancer cell proliferation.
(§3) Assay Method: Established cancer cell lines with a variety of driving mutations were obtained from American Type Culture Collection (ATCC) and routinely passaged according to ATCC protocols. For routine assay, these cells were seeded at densities that enabled ˜90% confluence after 7 days of culture. Raji, human Burkitts lymphoma cells, (cMYC) were seeded at 15,000 cells per 96-well. HL-60, human proleukemia cells, (NRAS, p16, p53, c-Myc amplified) were seeded at 5,000 cells per 96-well. NCI-H460, human non-small cell lung cancer cells, (KRAS, PIK3CA, STLK11, p16) were seeded at 3,000 cells per 96-well. Plated cells were incubated for 24 hr, and thereafter cells received an 11-point dilution of Compound 1 with final concentration ranges from 100 μM to 2.0 nM. […] IC50 values were calculated using the IDBS XLfit software package and include background subtracted OD490 values and normalization to DMSO controls. […]
For orientation: Formazan colour is commonly taken as a measure of viable cells.

Series [4] in a line: PK study of plasma exposure in rat after oral HPMCAS SDD preparations. The format is in vivo, female Sprague Dawley rats. The settings on record: female, Sprague Dawley, 10 mg/kg. As for the experimental part: Spray-dried dispersions (SDD) were prepared by mixing a solution of Compound 1 in (90:10) acetone:water with hydroxypropylmethylcellulose acetate succinate M or H (HPMCAS-M or HPMCAS-H) in ratios of Compound 1:polymer of either 1:9 or 1:3, followed by spray-drying each preparation using a custom bench scale Lab Spray Dryer (BLD-35; process parameters: inlet T° 93-109° C.; outlet T° 42-43° C.; atomizing pressure 110 psi; feed rate 29 g/min; […] 450 g/min).
In order to determine the plasma exposure levels of the three SDDs prepared as described above, each of them was administered orally at 10 mg/kg (based on Compound 1) to female Sprague Dawley rats as a suspension in 0.5% MC for the 10% HPMCAS-M SDD or as a suspension in 0.5% Methocel A4M/0.5% HPMCAS-HF/20 mM Tris, pH 7.4 for the 25% HPMCAS-M and the 25% HPMCAS-H SDDs. FIG. 9 illustrates the results of this experiment.

Series [5] relates to HL-60, human proleukemia cells. As to the kind of experiment: Cell-MTS cellular proliferation assay, HL-60. It is filed as cell-based. The settings on record: 168 hr incubation. The procedure: as §1, §2, §3
Series [6] in a line: PK study of dose proportionality in rat after oral SDD. It is filed as in vivo, female Sprague Dawley rats. As to conditions: 25% Compound 1:HPMC SDD, oral 0.5% MC suspension, 10 mg/kg to 300 mg/kg. The procedure: (§4) The spray-dried dispersion was prepared by mixing a solution of Compound 1 in dichloromethane with hydroxypropyl methylcellulose (Methocel E5 LV) (HPMC) in a 1:3 Compound 1:polymer ratio, stirring the mixture overnight, and then spray-drying using a lab scale Buchi spray dryer.

The test system of series [7] is NCI-H460, human non-small cell lung cancer cells. Kind of series: Cell-MTS cellular proliferation assay, NCI-H460. The format is cell-based. As to conditions: 168 hr incubation. The procedure:
as §1, §2, §3

Series [8] has as its target T1, BRD4(BD1) (Homo sapiens, UniProt O60885).
T1 construct: In a 384-well ProxiPlate BRD4(BD1) (2 nM final) was combined with peptide; made in house
Kind of series: In vitro enzyme inhibition assay (AlphaScreen, BRD4 / H4-tetraacetyl peptide). The format is binding. As to conditions: BRD4(BD1) 2 nM, peptide 15 nM. The procedure: His-tagged BRD4 was cloned, expressed, and purified to homogeneity. […] BRD4 binding and inhibition was assessed by monitoring the interaction of biotinylated H4-tetraacetyl peptide (AnaSpec, H4K5/8/12/16(Ac), biotin-labeled) with the target using the AlphaScreen technology ([…]). […] After 20 min incubation at RT, Alpha streptavidin donor beads and Nickel Chelate acceptor beads were added to a final concentration of 5 μg/mL.
(In general: Bead proximity is the source of the signal in Alpha formats.)

Series [9] can be described thus: PK study of dose proportionality in dog after oral SDD. It is filed as in vivo, male beagle dogs. As to conditions: 25% Compound 1:HPMC SDD, oral 0.5% MC suspension, 1 mg/kg-10 mg/kg. The procedure:
as §4

Series [10] in a line: PK study of plasma exposure in mouse 6 hours after oral SDD preparations. It is filed as in vivo, female CD-1 mice. The settings on record: female, CD-1, mouse. As for the experimental part: Spray-dried dispersions (SDD) were prepared by mixing a solution of Compound 1 in dichloromethane with either polyvinylpyrrolidone (PVP K12 PF) or hydroxypropyl methylcellulose (Methocel E5 LV) in ratios of Compound 1:polymer of either 1:1 or 1:3, resulting in four unique combinations, followed by spray-drying each preparation using a lab scale Buchi spray dryer (Buchi B290 parameters: inlet T° 80° C.; outlet T° 57° C.; aspirator 100%; nozzle air 30 mm; pump speed 25%; setup: open loop).
In order to determine the plasma exposure levels of the four SDDs prepared as described above, each of preparation was administered orally to female CD-1 mice as a suspension in 0.5% MC. FIG. 6 illustrates the results of this experiment.

Consider 2 compounds from patent US11679106B2, “Bromodomain inhibitor” (CELGENE QUANTICEL RESEARCH, INC., priority 2015, dated 2023).

SMILES strings stand for the structures. pIC50: −log10 of the molar value. Values after ≈ are worked out from the molar mass of the structure shown. Where only a bound is given, the exact number is not on record here.

On to `Cn1cc(-c2cc(S(C)(=O)=O)ccc2OCC2CC2)c2ccccc2c1=O` [Compound 1 Form A, 4-[2-(cyclopropylmethoxy)-5-methylsulfonylphenyl]-2-methylisoquinolin-1-one], for which the “exposure levels (AUC 0-24 hr) versus dose” value in [1] is recorded as “non-linear exposure levels”. Further, the solubility (in general, how much of the substance goes into solution per volume) in [2] lay within 2.6 to 3.7 µg/mL (≈ 6.78 to 9.65 µM).
Consider `Cn1cc(-c2cc(S(C)(=O)=O)ccc2OCC2CC2)c2ccccc2c1=O` [Compound 1, 4-[2-(cyclopropylmethoxy)-5-methylsulfonylphenyl]-2-methylisoquinolin-1-one], for which the pIC50 (commonly the negative decadic logarithm of the IC50, by convention in mol/L) in series [3] is not below 6.30; in [5] it was not below 6.30; in [7], less than 5.30; in [8], more than 6.30. Further, the AUC(0-t) in series [4] (SDD with HPMCAS-M polymer, Compound 1:polymer 1:9, suspension in 0.5% MC, read-out: mean AUC 0-24 hr) was found to be 28100 ng·h/mL; in series [4] (pH 7.4, SDD with HPMCAS-H polymer, Compound 1:polymer 1:3, suspension in 0.5% Methocel A4M/0.5% HPMCAS-HF/20 mM Tris, pH 7.4, read-out: mean AUC 0-24 hr) it was 27500 ng·h/mL; in series [4] (pH 7.4, SDD with HPMCAS-M polymer, Compound 1:polymer 1:3, suspension in 0.5% Methocel A4M/0.5% HPMCAS-HF/20 mM Tris, pH 7.4, read-out: mean AUC 0-24 hr), 24600 ng·h/mL; in series [10] (SDD with HPMC polymer, Compound 1:polymer 1:1, suspension in 0.5% MC), 10500 ng·h/mL; in series [10] (SDD with HPMC polymer, Compound 1:polymer 1:3, suspension in 0.5% MC) it was 24400 ng·h/mL; in series [10] (SDD with PVP polymer, Compound 1:polymer 1:1, suspension in 0.5% MC) it was 7190 ng·h/mL. For the same compound, in [10] (SDD with PVP polymer, Compound 1:polymer 1:3, suspension in 0.5% MC), the AUC(0-t) was found to be 8870 ng·h/mL. In addition, the “dose proportionality (AUC 0-24 hr)” value in series [6] is listed as “approximate dose proportionality”; in series [9], “Approximate dose proportionality”.
